# According to PubChem BioAssay (NCI):
#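 Following 48 hours of exposure in 96-well plates, responses at five concentrations were used to interpolate endpoints linearly. TGI denotes the concentration required for complete inhibition of growth.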
# Tests used:
# Test in all cases: growth of human tumour cells (NCI), 48 h
# [1] = system: SF-268 CNS
# [2] = system: HOP-62 NSCLC
# [3] = system: OVCAR-5 ovarian
# [4] = system: SNB-19 CNS
# [5] = system: SK-MEL-5 melanoma
# [6] = system: T-47D breast
# [7] = system: MDA-MB-231 breast
# [8] = system: SR leukemia
# [9] = system: NCI-H23 lung
# [10] = system: EKVX NSCLC
# [11] = system: SF-539 CNS
# [12] = system: HL-60(TB) leukemia
# [13] = system: SK-MEL-2 melanoma
# [14] = system: OVCAR-4 ovarian
# [15] = system: NCI-H460 lung
# [16] = system: UO-31 renal
# [17] = system: NCI-H522 lung
# [18] = system: MALME-3M melanoma
# [19] = system: MCF7 breast
# [20] = system: 786-0 renal
# [21] = system: LOX IMVI melanoma
# [22] = system: MDA-MB-435
# [23] = system: NCI-H226 lung
# [24] = system: HS 578T breast
# [25] = system: PC-3 prostate
# [26] = system: CCRF-CEM leukemia
# [27] = system: COLO 205 colon
# [28] = system: TK-10 renal
# [29] = system: M14 melanoma
# [30] = system: HT29 colon
# [31] = system: HCC-2998 colon
# [32] = system: KM12 colon
# [33] = system: DU-145 prostate
# [34] = system: OVCAR-8 ovarian
# [35] = system: MOLT-4 leukemia
# [36] = system: CAKI-1 renal
# [37] = system: SK-MEL-28 melanoma
# [38] = system: MDA-N
# [39] = system: SF-295 CNS
# [40] = system: A498 renal
# [41] = system: SN12C renal
# [42] = system: SW-620 colon
# [43] = system: SNB-75 CNS
# [44] = system: NCI/ADR-RES ovarian
# [45] = system: HCT-15 colon
# [46] = system: HCT-116 colon
# [47] = system: HOP-92 NSCLC
# [48] = system: ACHN renal
# [49] = system: IGROV1 ovarian
# [50] = system: A549 NSCLC
# [51] = system: UACC-257 melanoma
# [52] = system: U251 CNS
# [53] = system: UACC-62 melanoma
# [54] = system: SK-OV-3 ovarian
# [55] = system: K-562 leukemia
# [56] = system: RPMI-8226 leukemia
# [57] = system: OVCAR-3 ovarian
# [58] = system: RXF 393 renal
structure (smiles),measurement,setting,value
CCN(CC)CCOc1ccc(N2C(=O)c3cccc4cc([N+](=O)[O-])cc(c34)C2=O)cc1,TGI,[1],27.1 µM
same,TGI,[2],15.4 µM
same,TGI,[3],20.9 µM
same,TGI,[4],30.3 µM
same,TGI,[5],26.6 µM
same,TGI,[6],39.3 µM
same,TGI,[7],37.6 µM
same,TGI,[8],32.8 µM
same,TGI,[9],26.5 µM
same,TGI,[10],35.4 µM
same,TGI,[11],25.1 µM
same,TGI,[12],28.2 µM
same,TGI,[13],33.7 µM
same,TGI,[14],31 µM
same,TGI,[15],15.5 µM
same,TGI,[16],21.7 µM
same,TGI,[17],19.7 µM
same,TGI,[18],26.9 µM
same,TGI,[19],23.5 µM
same,TGI,[20],18.3 µM
same,TGI,[21],20.4 µM
same,TGI,[22],26.6 µM
same,TGI,[23],19 µM
same,TGI,[24],42.5 µM
same,TGI,[25],35.2 µM
same,TGI,[26],30.8 µM
same,TGI,[27],64.2 µM
same,TGI,[28],26 µM
same,TGI,[29],25.3 µM
same,TGI,[30],18.3 µM
same,TGI,[31],25 µM
same,TGI,[32],64.5 µM
same,TGI,[33],24.3 µM
same,TGI,[34],34.5 µM
same,TGI,[35],11.3 µM
same,TGI,[36],26 µM
same,TGI,[37],25.3 µM
same,TGI,[38],30.3 µM
same,TGI,[39],21.1 µM
same,TGI,[40],25.4 µM
same,TGI,[41],40.9 µM
same,TGI,[42],25.8 µM
same,TGI,[43],35.1 µM
same,TGI,[44],60 µM
same,TGI,[45],26.1 µM
same,TGI,[46],20.5 µM
same,TGI,[47],44.1 µM
same,TGI,[48],15.9 µM
same,TGI,[49],22.3 µM
same,TGI,[50],19.8 µM
same,TGI,[51],27 µM
same,TGI,[52],22.6 µM
COc1cc(C=O)cc(/C=N/c2ccccn2)c1O,TGI,[53],> 100 µM
same,TGI,[1],19 µM
same,TGI,[2],80 µM
same,TGI,[3],> 100 µM
same,TGI,[4],> 100 µM
same,TGI,[5],11.4 µM
same,TGI,[6],> 100 µM
same,TGI,[7],> 100 µM
same,TGI,[8],34.5 µM
same,TGI,[9],> 100 µM
same,TGI,[10],> 100 µM
same,TGI,[54],78 µM
same,TGI,[11],8.84 µM
same,TGI,[12],83.3 µM
same,TGI,[55],> 100 µM
same,TGI,[13],10.5 µM
same,TGI,[14],> 100 µM
same,TGI,[15],42.7 µM
same,TGI,[16],14.1 µM
same,TGI,[18],14.9 µM
same,TGI,[19],> 100 µM
same,TGI,[20],> 100 µM
same,TGI,[21],30.9 µM
same,TGI,[22],41.4 µM
same,TGI,[23],38.4 µM
same,TGI,[24],70.6 µM
same,TGI,[25],25.6 µM
same,TGI,[26],> 100 µM
same,TGI,[27],29.5 µM
same,TGI,[28],> 100 µM
same,TGI,[29],62.2 µM
same,TGI,[30],55 µM
same,TGI,[31],> 100 µM
same,TGI,[32],> 100 µM
same,TGI,[33],> 100 µM
same,TGI,[34],12 µM
same,TGI,[56],51.9 µM
same,TGI,[35],88.7 µM
same,TGI,[36],9.76 µM
same,TGI,[37],21.9 µM
same,TGI,[38],35.6 µM
same,TGI,[39],> 100 µM
same,TGI,[40],31.3 µM
same,TGI,[41],88.8 µM
same,TGI,[42],> 100 µM
same,TGI,[43],16.3 µM
same,TGI,[44],> 100 µM
same,TGI,[57],59.1 µM
same,TGI,[45],> 100 µM
same,TGI,[58],4.97 µM
same,TGI,[46],> 100 µM
same,TGI,[47],8.55 µM
same,TGI,[48],6.97 µM
same,TGI,[50],> 100 µM
same,TGI,[51],55.3 µM
same,TGI,[52],55.2 µM
CC1CC(C)CC(NC2=NCCO2)C1 (centres undefined),TGI,[53],> 100 µM
same,TGI,[1],> 100 µM
same,TGI,[2],> 100 µM
same,TGI,[3],> 100 µM
same,TGI,[4],> 100 µM
same,TGI,[5],> 100 µM
same,TGI,[6],> 100 µM
same,TGI,[7],> 100 µM
same,TGI,[8],> 100 µM
same,TGI,[9],> 100 µM
same,TGI,[10],> 100 µM
same,TGI,[11],> 100 µM
same,TGI,[12],> 100 µM
same,TGI,[55],> 100 µM
same,TGI,[13],> 100 µM
same,TGI,[14],> 100 µM
same,TGI,[15],> 100 µM
same,TGI,[16],> 100 µM
same,TGI,[17],> 100 µM
same,TGI,[18],> 100 µM
same,TGI,[19],> 100 µM
same,TGI,[20],> 100 µM
same,TGI,[21],> 100 µM
same,TGI,[22],> 100 µM
same,TGI,[23],> 100 µM
same,TGI,[24],> 100 µM
same,TGI,[25],> 100 µM
same,TGI,[26],> 100 µM
same,TGI,[27],> 100 µM
same,TGI,[28],> 100 µM
same,TGI,[29],> 100 µM
same,TGI,[30],> 100 µM
same,TGI,[31],> 100 µM
same,TGI,[32],> 100 µM
same,TGI,[33],> 100 µM
same,TGI,[34],> 100 µM
same,TGI,[56],> 100 µM
same,TGI,[35],> 100 µM
same,TGI,[36],> 100 µM
same,TGI,[37],> 100 µM
same,TGI,[38],> 100 µM
same,TGI,[39],> 100 µM
same,TGI,[40],> 100 µM
same,TGI,[41],> 100 µM
same,TGI,[42],> 100 µM
same,TGI,[44],> 100 µM
same,TGI,[57],> 100 µM
same,TGI,[45],> 100 µM
same,TGI,[58],> 100 µM
same,TGI,[46],> 100 µM
same,TGI,[47],> 100 µM
same,TGI,[48],> 100 µM
same,TGI,[49],> 100 µM
same,TGI,[50],> 100 µM
same,TGI,[51],> 100 µM
same,TGI,[52],> 100 µM
